Laboratory results published in ChEMBL document CHEMBL3792312, “Synthesis and docking studies of pyrazine-thiazolidinone hybrid scaffold targeting dormant tuberculosis” (Bioorg Med Chem Lett, 2016).
≈ marks a conversion by molar mass, not a printed value.

Key:
[1] = test system: Mycobacterium tuberculosis; assay: Antitubercular activity against dormant Mycobacterium bovis BCG after at 30 ug 12 days by nitrate reductase assay; format: functional, variant bovis BCG
[2] = test system: Mycobacterium tuberculosis; assay: Antitubercular activity against dormant Mycobacterium bovis BCG after at 10 ug 12 days by nitrate reductase assay; format: functional, variant bovis BCG
[3] = test system: Mycobacterium tuberculosis; assay: Antitubercular activity against dormant Mycobacterium bovis BCG after at 3 ug 12 days by nitrate reductase assay; format: functional, variant bovis BCG
[4] = test system: Mycobacterium tuberculosis; assay: Antitubercular activity against dormant Mycobacterium bovis BCG after 12 days by nitrate reductase assay; format: functional, organism-based; conditions: variant bovis BCG, 288 h

Row | SMILES | inhibition (INH) [1] [%] | inhibition (INH) [2] [%] | inhibition (INH) [3] [%] | IC50 [4] [µg/mL] | MIC [4] [µg/mL]
1 | Nc1nccnc1C(=O)NN1C(=O)CS[C@H]1c1ccc([N+](=O)[O-])cc1 | 96.67 | 34.04 | 45.89 | – | –
2 | Cc1cnc(C(=O)NN2C(=O)CS[C@H]2c2ccc(N(C)C)cc2)cn1 | 92.16 | 75.69 | 30.06 | 21.8 (≈ 61 µM) | 29.4 (≈ 82.3 µM)
3 | Nc1nccnc1C(=O)NN1C(=O)CSC1c1ccc(Cl)cc1Cl (stereo not drawn) | 56.5348 | 27.48 | 22.55 | – | –
4 | Nc1nccnc1C(=O)NN1C(=O)CSC1c1cccc([N+](=O)[O-])c1 (stereo not drawn) | 64.92 | 38.85 | 47.21 | – | –
5 | Nc1nccnc1C(=O)NN1C(=O)CSC1c1ccccc1 (stereo not drawn) | 97.97 | 30.74 | 11.98 | 12.9 (≈ 40.9 µM) | 24.4 (≈ 77.4 µM)
6 | O=C(NN1C(=O)CS[C@@H]1c1ccc(Cl)cc1)c1cnccn1 | 96.24 | 91.85 | 43.58 | 3.26 (≈ 9.74 µM) | 8.48 (≈ 25.3 µM)
7 | CN(C)c1ccc(C2SCC(=O)N2NC(=O)c2nccnc2N)cc1 (stereo not drawn) | 32.8615 | 44.99 | 26.9022 | – | –
8 | O=C(NN1C(=O)CSC1c1ccc(O)cc1)c1cnccn1 (stereo not drawn) | 54.42 | 16.47 | 9.989 | – | –
9 | Nc1nccnc1C(=O)NN1C(=O)CSC1c1ccc(F)cc1 (stereo not drawn) | 63.72 | 26.63 | 12.4938 | – | –
10 | Nc1nccnc1C(=O)NN1C(=O)CSC1c1ccc(Cl)cc1 (stereo not drawn) | 76.11 | 46.72 | 22.09 | – | –
11 | Nc1nccnc1C(=O)NN1C(=O)CSC1c1ccc(O)cc1 (stereo not drawn) | 82.99 | 45.87 | 14.76 | – | –
12 | Cc1cnc(C(=O)NN2C(=O)CSC2c2ccc(O)cc2)cn1 (stereo not drawn) | 77.54 | -17.5884 | -7.23 | – | –
13 | CCOc1cc([C@@H]2SCC(=O)N2NC(=O)c2cnc(C)cn2)ccc1O | 97.31 | 34.91 | -10.8481 | 9.46 (≈ 25.3 µM) | 15.9 (≈ 42.5 µM)
14 | O=C(NN1C(=O)CS[C@@H]1c1ccc([N+](=O)[O-])cc1)c1cnccn1 | 98.6 | 92.72 | 24.09 | 4.93 (≈ 14.3 µM) | 9.38 (≈ 27.2 µM)
15 | COc1ccc(C2SCC(=O)N2NC(=O)c2cnc(C)cn2)cc1OC (stereo not drawn) | 96.436 | 14.41 | -15.2185 | – | –
16 | Cc1cnc(C(=O)NN2C(=O)CSC2c2ccccc2)cn1 (stereo not drawn) | 96.6 | -6.383 | 34.12 | – | –
17 | COc1cc([C@@H]2SCC(=O)N2NC(=O)c2cnc(C)cn2)ccc1O | 98.03 | 81.1965 | 3.203 | 5.1 (≈ 14.2 µM) | 12.2 (≈ 34 µM)
18 | COc1ccc(C2SCC(=O)N2NC(=O)c2cnc(C)cn2)cc1 (stereo not drawn) | 88.13 | 66.73 | -16.0935 | – | –
19 | COc1ccc([C@H]2SCC(=O)N2NC(=O)c2nccnc2N)cc1OC | 94.4 | 25.35 | 3.112 | 23.4 (≈ 62.5 µM) | 29.2 (≈ 77.9 µM)
20 | Cc1cnc(C(=O)NN2C(=O)CS[C@@H]2c2cccc([N+](=O)[O-])c2)cn1 | 96.43 | 88.47 | 10.69 | 9.89 (≈ 27.5 µM) | 18.5 (≈ 51.5 µM)
21 | Cc1cnc(C(=O)NN2C(=O)CSC2c2ccc(Cl)cc2)cn1 (stereo not drawn) | 61.87 | 48.01 | 44.18 | – | –
22 | Cc1cnc(C(=O)NN2C(=O)CS[C@@H]2c2ccc([N+](=O)[O-])cc2)cn1 | 97.76 | 56.74 | -13.1407 | 23.4 (≈ 65.3 µM) | 28.8 (≈ 80.1 µM)
23 | CCOc1cc([C@H]2SCC(=O)N2NC(=O)c2nccnc2N)ccc1O | 97.5903 | 23.79 | 30.79 | 23.4 (≈ 62.4 µM) | 29.4 (≈ 78.4 µM)
24 | NNC(=O)c1ccncc1 [ISONIAZID] | – | – | – | – | 0.045 (≈ 0.328 µM)
25 | NC(=O)c1cnccn1 [PYRAZINAMIDE] | – | – | – | – | > 100
26 | CO[C@H]1/C=C/O[C@@]2(C)Oc3c(C)c(O)c4c(O)c(c(/C=N/N5CCN(C)CC5)c(O)c4c3C2=O)NC(=O)/C(C)=C\C=C\[C@H](C)[C@H](O)[C@@H](C)[C@@H](O)[C@@H](C)[C@H](OC(C)=O)[C@@H]1C [RIFAMPIN] | – | – | – | 0.004 (≈ 0.00486 µM) | 0.04 (≈ 0.0486 µM)
